The structures appear in SMILES notation.

Assay [1] concerns hepatocellular carcinoma cell line (Hep3B 2.1-7). The experiment in a line: Tumor cell proliferation inhibition (CTG, 72 h). It counts as cell-based. The following applies: Homo sapiens; Hep3B 2.1-7 cells, class; read-out: Hep3B 2.1-7 range of activity (IC50).
For assay [2], the system named is bladder cancer cell line (RT112/84). The experiment in a line: Tumor cell proliferation inhibition (CTG, 72 h). It counts as cell-based. The following applies: Homo sapiens; RT112/84 cells, class; read-out: RT112/84 range of activity (IC50).
For assay [3], the system named is thyroid cancer cell line (TT). Description: Tumor cell proliferation inhibition (CTG, 72 h). It counts as cell-based. The following applies: Homo sapiens; TT cells, class; read-out: TT range of activity (IC50).
Assay [4] concerns cervical cancer cell line (Hela). Description: Tumor cell proliferation inhibition (CTG, 72 h). It counts as cell-based. The following applies: Homo sapiens; Hela cells, class; read-out: Hela activity effect range (IC50).
Assay [5] deals with leukemia cell line (K562). The experiment in a line: Tumor cell proliferation inhibition (CTG, 72 h). It counts as cell-based. The following applies: Homo sapiens; K562 cells, class; read-out: K562 activity effect range (IC50).
For the next assay, the target named is VEGFR-2 (KDR) (Homo sapiens (Human), UniProt P35968). The experiment in a line: Kinase inhibition, Mobility-Shift Assay. As to conditions: class; read-out: KDR activity effect range (IC50). It counts as biochemical.
Chain of VEGFR-2 (KDR) (P35968 20-1356): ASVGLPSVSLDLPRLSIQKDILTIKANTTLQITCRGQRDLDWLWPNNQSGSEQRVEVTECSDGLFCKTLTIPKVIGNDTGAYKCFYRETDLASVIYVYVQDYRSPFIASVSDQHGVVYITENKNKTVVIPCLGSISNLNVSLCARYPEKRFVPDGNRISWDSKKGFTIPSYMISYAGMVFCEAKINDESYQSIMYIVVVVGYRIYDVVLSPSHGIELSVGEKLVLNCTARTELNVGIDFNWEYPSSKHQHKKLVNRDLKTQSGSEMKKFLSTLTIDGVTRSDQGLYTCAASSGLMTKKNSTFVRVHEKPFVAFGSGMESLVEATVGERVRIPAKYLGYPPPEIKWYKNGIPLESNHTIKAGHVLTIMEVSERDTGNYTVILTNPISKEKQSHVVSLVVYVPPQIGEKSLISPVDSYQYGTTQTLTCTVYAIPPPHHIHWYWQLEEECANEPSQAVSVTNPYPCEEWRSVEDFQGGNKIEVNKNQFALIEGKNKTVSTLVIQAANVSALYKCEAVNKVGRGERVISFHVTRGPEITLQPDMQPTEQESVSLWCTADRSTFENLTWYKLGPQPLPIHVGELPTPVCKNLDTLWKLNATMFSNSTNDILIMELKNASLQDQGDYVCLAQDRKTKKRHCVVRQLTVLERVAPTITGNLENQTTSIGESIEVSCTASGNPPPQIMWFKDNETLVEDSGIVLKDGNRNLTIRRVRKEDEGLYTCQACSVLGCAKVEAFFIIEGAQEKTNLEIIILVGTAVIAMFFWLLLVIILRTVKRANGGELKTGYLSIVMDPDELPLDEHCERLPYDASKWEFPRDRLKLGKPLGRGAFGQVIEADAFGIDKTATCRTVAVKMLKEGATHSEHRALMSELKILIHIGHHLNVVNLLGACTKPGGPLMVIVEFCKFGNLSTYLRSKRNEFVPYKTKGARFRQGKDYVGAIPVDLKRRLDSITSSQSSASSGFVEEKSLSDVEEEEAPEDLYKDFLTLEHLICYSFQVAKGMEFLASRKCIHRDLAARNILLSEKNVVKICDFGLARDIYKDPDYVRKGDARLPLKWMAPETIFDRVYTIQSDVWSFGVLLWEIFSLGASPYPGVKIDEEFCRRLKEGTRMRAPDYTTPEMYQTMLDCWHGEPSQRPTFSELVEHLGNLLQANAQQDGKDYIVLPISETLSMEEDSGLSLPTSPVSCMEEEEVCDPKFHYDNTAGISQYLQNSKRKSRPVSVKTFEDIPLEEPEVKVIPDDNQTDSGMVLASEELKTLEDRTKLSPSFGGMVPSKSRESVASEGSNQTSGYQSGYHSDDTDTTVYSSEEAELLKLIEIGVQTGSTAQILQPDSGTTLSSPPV
For another assay, the target named is FGFR2 (Homo sapiens (Human), UniProt P21802). Description: Kinase inhibition, Mobility-Shift Assay. In kind it is biochemical. The following applies: class; read-out: FGFR2 range of activity effects (IC50).
The target in the next assay is FGFR4 (Homo sapiens (Human), UniProt P22455). Description: Kinase inhibition, Mobility-Shift Assay. It counts as biochemical. As to conditions: class; read-out: FGFR4 range of activity effects (IC50).
Chain of FGFR4 (P22455 22-802): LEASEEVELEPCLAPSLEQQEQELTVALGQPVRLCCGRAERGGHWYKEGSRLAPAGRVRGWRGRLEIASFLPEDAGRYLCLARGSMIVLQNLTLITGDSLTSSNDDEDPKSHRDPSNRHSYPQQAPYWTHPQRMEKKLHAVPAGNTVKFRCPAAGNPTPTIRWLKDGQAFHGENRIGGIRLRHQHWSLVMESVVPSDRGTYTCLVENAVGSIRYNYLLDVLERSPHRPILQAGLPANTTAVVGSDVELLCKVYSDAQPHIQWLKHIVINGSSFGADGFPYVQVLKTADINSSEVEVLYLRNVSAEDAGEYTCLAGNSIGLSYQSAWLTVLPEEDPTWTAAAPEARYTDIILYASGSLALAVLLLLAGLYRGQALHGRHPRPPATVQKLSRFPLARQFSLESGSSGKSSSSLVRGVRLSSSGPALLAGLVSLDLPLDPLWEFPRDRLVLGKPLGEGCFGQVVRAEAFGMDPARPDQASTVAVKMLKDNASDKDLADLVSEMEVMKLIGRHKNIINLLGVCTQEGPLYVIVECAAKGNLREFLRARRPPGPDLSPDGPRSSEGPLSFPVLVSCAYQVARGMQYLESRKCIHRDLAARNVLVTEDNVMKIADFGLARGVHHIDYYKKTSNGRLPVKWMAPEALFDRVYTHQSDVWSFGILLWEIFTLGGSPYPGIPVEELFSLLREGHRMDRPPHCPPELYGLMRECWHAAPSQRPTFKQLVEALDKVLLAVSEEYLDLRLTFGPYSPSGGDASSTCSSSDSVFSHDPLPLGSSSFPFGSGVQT
The next assay has as its target EGFR (Homo sapiens (Human), UniProt P00533). The experiment in a line: Kinase inhibition, Mobility-Shift Assay. As to conditions: class; read-out: EGFR range of activity (IC50). It counts as biochemical.
In a further assay the target is C-MET (Homo sapiens (Human), UniProt P08581). Description: Kinase inhibition, Mobility-Shift Assay. In kind it is biochemical. As to conditions: class; read-out: C-MET range of activity (IC50).
Chain of C-MET (P08581 25-1390): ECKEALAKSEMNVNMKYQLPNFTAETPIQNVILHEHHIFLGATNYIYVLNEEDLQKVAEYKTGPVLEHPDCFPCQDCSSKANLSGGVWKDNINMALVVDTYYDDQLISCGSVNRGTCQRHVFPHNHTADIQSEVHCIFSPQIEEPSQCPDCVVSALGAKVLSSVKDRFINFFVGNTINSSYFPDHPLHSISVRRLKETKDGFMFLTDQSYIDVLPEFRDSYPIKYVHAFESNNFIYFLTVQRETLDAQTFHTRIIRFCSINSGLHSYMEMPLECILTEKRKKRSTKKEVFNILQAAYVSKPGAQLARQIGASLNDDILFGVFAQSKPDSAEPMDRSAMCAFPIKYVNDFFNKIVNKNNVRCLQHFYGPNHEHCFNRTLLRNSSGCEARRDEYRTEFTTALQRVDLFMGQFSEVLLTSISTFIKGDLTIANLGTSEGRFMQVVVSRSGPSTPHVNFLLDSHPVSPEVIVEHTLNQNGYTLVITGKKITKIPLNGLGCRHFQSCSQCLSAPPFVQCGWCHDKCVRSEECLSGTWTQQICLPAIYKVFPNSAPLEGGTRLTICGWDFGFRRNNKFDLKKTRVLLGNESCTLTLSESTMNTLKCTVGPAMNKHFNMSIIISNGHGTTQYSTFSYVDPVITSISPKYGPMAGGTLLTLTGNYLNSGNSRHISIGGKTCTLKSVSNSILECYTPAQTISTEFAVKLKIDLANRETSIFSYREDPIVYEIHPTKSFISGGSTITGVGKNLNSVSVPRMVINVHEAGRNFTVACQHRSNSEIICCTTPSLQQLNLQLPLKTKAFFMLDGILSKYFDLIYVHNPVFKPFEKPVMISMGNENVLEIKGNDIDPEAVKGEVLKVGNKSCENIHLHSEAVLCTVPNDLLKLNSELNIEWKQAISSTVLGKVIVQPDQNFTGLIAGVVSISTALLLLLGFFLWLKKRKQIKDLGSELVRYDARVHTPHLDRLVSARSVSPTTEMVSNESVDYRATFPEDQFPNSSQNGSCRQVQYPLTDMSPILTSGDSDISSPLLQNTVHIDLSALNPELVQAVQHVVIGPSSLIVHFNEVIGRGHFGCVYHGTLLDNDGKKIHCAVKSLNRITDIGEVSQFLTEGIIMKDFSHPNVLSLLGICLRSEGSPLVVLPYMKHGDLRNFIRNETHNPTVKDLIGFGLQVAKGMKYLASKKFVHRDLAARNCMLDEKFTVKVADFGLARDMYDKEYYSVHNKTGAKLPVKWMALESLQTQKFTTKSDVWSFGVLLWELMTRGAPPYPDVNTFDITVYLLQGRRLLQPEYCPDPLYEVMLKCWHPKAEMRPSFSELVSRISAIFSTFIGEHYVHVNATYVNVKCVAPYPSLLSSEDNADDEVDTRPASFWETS

Chain of EGFR (P00533 25-1210): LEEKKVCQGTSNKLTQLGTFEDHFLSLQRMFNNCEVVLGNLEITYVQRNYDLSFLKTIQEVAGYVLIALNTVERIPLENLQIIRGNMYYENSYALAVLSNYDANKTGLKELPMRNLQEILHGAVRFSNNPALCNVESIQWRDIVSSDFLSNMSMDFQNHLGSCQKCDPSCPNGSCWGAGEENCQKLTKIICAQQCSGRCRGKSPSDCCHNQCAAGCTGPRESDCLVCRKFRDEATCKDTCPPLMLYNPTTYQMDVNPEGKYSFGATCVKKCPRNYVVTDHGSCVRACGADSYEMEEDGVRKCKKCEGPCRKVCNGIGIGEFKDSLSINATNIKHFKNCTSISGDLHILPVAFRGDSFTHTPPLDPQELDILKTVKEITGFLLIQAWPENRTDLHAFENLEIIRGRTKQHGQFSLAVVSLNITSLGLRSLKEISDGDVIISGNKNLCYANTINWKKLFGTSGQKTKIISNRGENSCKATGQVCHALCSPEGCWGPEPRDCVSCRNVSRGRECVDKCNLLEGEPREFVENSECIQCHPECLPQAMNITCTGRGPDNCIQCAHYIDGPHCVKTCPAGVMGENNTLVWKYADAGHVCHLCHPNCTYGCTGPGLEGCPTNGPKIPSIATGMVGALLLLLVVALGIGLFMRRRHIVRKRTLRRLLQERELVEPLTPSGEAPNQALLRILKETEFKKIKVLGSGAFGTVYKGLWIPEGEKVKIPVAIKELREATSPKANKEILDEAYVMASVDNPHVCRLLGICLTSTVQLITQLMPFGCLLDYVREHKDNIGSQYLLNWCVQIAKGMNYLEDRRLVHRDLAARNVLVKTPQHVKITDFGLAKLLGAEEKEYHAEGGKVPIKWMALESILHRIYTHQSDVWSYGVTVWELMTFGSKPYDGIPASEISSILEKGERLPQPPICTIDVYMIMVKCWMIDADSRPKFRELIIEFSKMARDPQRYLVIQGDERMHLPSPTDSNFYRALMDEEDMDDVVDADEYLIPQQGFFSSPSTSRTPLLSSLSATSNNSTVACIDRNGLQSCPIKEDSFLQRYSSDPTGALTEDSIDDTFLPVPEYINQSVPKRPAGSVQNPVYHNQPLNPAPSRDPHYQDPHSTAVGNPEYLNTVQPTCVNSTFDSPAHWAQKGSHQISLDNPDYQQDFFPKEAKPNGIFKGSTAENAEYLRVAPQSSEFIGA

Consider `[2H]C([2H])([2H])Oc1c(Cl)c(NC(=O)NC2CC2)cc(F)c1Oc1ccnc2cc(OC)c(C(N)=O)cc12` [III-43], for which the IC50 in assay [1] is over 5000 nM; in assay [2], over 1000 nM; in [3], over 10000 nM; in assay [4], over 10000 nM; in assay [5] it was over 10000 nM; on VEGFR-2 (KDR) it was over 10 nM. For the same molecule, the IC50 on FGFR2, on FGFR4, at EGFR and on C-MET was over 100 nM in each case.

In the case of `COc1cc2nccc(Oc3c(F)cc(NC(=O)NCC(C)(C)O)c(Cl)c3F)c2cc1C(N)=O` [III-12], the IC50 was over 5000 nM in [1]; over 1000 nM in [2]; over 10000 nM in assay [3]; over 10000 nM in [4]; over 10000 nM in [5]; over 10 nM at VEGFR-2 (KDR). The IC50 on FGFR2, at FGFR4, on EGFR and on C-MET was over 100 nM each time.

As for `COc1cc2nccc(Oc3c(F)cc(NC(=O)NC4CC4(F)F)c(Cl)c3F)c2cc1C(N)=O` (centres unmarked) [III-24], the IC50 in assay [1] was over 5000 nM; in assay [2] it was over 1000 nM; in [3], over 10000 nM; in assay [4], over 10000 nM; in assay [5], over 10000 nM; on VEGFR-2 (KDR), over 10 nM. The IC50 at FGFR2, on FGFR4, at EGFR and at C-MET was over 100 nM in each case.

Consider `COc1cc2nccc(Oc3c(F)cc(NC(=O)NC4CC4)c(OC)c3F)c2cc1C(N)=O` [III-40], for which the IC50 in assay [1] was over 5000 nM; in [2], over 1000 nM; in assay [3], over 10000 nM; in assay [4] it was over 10000 nM; in assay [5], over 10000 nM; on VEGFR-2 (KDR) it was over 10 nM. In addition, the IC50 at FGFR2, on FGFR4, at EGFR and on C-MET was over 100 nM each time.

Take `COc1cc2nccc(Oc3c(F)cc(NC(=O)NC4CC4)c(Cl)c3OCC(F)(F)F)c2cc1C(N)=O` [III-47]: the IC50 in [1] was over 5000 nM; in [2], over 1000 nM; in assay [3] it was over 10000 nM; in [4] it was over 10000 nM; in assay [5], over 10000 nM; at VEGFR-2 (KDR), over 10 nM. For the same molecule, the IC50 at FGFR2, at FGFR4, on EGFR and on C-MET was over 100 nM throughout.

As for `COc1cc2nccc(Oc3c(F)cc(NC(=O)N[C@@H](C)CO)c(Cl)c3F)c2cc1C(N)=O` [III-07], the IC50 in [1] is over 5000 nM; in [2], over 1000 nM; in [3], over 10000 nM; in [4], over 10000 nM; in [5], over 10000 nM; on VEGFR-2 (KDR) it was over 10 nM. The IC50 on FGFR2, at FGFR4, on EGFR and at C-MET was over 100 nM each time.

Take `COc1cc2nccc(Oc3c(F)cc(NC(=O)NC4CC4)c(Cl)c3OC(C)C)c2cc1C(N)=O` [III-42]: the IC50 in assay [1] was over 5000 nM; in [2], over 1000 nM; in [3], over 10000 nM; in assay [4] it was over 10000 nM; in assay [5] it was over 10000 nM; on VEGFR-2 (KDR), over 10 nM. Besides, the IC50 at FGFR2, at FGFR4, at EGFR and on C-MET was over 100 nM throughout.

In the case of `COc1cc2nccc(Oc3c(F)cc(NC(=O)N4CC[C@@H](O)C4)c(Cl)c3F)c2cc1C(N)=O` [III-32], the IC50 in [1] was over 5000 nM; in assay [2] it was over 1000 nM; in assay [3] it was over 10000 nM; in assay [4], over 10000 nM; in assay [5] it was over 10000 nM; at VEGFR-2 (KDR), over 10 nM. Besides, the IC50 on FGFR2, on FGFR4, on EGFR and on C-MET was over 100 nM throughout.

The record behind these values is US12071408B2, “Multi-targeted tyrosine kinase inhibitors effective in antitumor uses” (Shanghai AB PharmaTech Ltd., priority 2021, dated 2024).
